{"source": "patent US20180104332A1", "about": "“INSULIN-LIKE GROWTH FACTOR INHIBITOR AND CHEMOTHERAPEUTIC AGENT FOR USE IN CANCER THERAPY” (The University of Liverpool, priority 2015, published 2018)", "molecules": {"B1": {"name": "BI 836845: IGF blocking antibody, in phase 1 clinical trials for various solid cancers (antibody, chains of the INN, looked up, V domains shown)", "VH": "QVELVESGGGLVQPGGSLRLSCAASGFTFTSYWMSWVRQAPGKGLELVSSITSYGSFTYYADSVKGRFTISRDNSKNTLYLQMNSLRAEDTAVYYCARNMYTHFDSWGQGTLVTVSS", "VL": "DIVLTQPPSVSGAPGQRVTISCSGSSSNIGSNSVSWYQQLPGTAPKLLIYDNSKRPSGVPDRFSGSKSGTSASLAITGLQSEDEADYYCQSRDTYGYYWVFGGGTKLTVL"}}, "key": {"[1]": {"tested_on": "KPC-derived orthotopic pancreatic tumors", "assay": "Syngeneic orthotopic pancreatic cancer model, gemcitabine and IGF blocking antibody BI 836845", "type": "in vivo, mouse", "details": "for effect on tumor growth (tumor weights): i.p. twice a week for two weeks, gemcitabine 100 mg/Kg, BI 836845 100 mg/Kg, vs control IgG, FIG. 47b", "description": "FIG. 47 illustrates a combination with gemcitabine with IGF blockade inhibites tumor growth in the syngeneic orthotopic pancreatic cancer model: (a) KPC^luc/zsGreen(zsGreen)-derived pancreatic tumor cells were orthotopically implanted into the pancreas of syngeneic recipient mice, and mice were treated, starting at day 7 after tumor implantation, twice a week i.p., with either control IgG antibody, gemcitabine (100 mg/Kg), IGF blocking antibody BI 836845 (100 mg/Kg) or a combination of gemcitabine with IGF blocking antibody. (b) Representative images of tumors and tumor weights are shown (n=6 mice per group). (c) Pancreatic tumors were digested and percentage of intra- tumoral F4/80+ macrophages, Ly6C+/Ly6G− inflammatory monoctyes, Gr1+/CD11b+ neutrophils and myeloid derived suppressor cells (MDSCs) and CD8+ cytotoxic T cells (CTCs), among CD45+ immune cells, were quantified by flow cytometry (n=3). (d) Percentage of intra-tumoral CD206− M1-like macrophages and CD206+M2-like macrophages, among F4/80+ macrophages, were quantified by flow cytometry (n=3). […] (f) Quantification of cleaved caspase-3 positive apoptotic cells in PDA tumors treated with IgG (control), gemcitabine, IGF blocking antibody BI 836845 or gemcitabine+BI 836845 (n=6 fields counted).\nAll animal experiments were performed in accordance with current UK legislation under an approved project licence (reference number: 403725). […] Tumor tissues were analyzed by immunohistochemical and immunofluorescent staining for phospho-lnsulin/IGFR expression, EpCAM expression, macrophage infiltration, fibroblast activation and apoptosis using the following antibodies: phospho-insulin/IGF receptor antibody (R&D), EpCAM (BD Pharmingen), CD68 antibody (DAKO), CD206 (abcam), αSMA (abcam) and cleaved caspase 3 (Cell signaling). Expression of IGF-1, IGF-2, Arginase, IL-10, IFNγ and IL-12 in intra-tumoral isolated macrophages were determined by qPCR. […]"}, "pancreatic cancer": {"tested_on": "pancreatic cancer", "details": "patients diagnosed with pancreatic cancer; cited from earlier work"}, "[2]": {"tested_on": "Suit-2 and KPC-derived pancreatic cancer cells", "assay": "Cell death by flow cytometry (annexinV/PI) under chemotherapy with MCM, IGF blocking antibody or recombinant IGF", "type": "cell-based", "details": "recombinant IGF 100 ng/ml, 24 hours, FIGS. 30-32", "description": "FIG. 29 illustrates quantification of cell death in Suit-2 cells treated with gemcitabine, MCM and IGF blocking antibody for 24 hours. Error bars represent s.d. (n=3); **two tailed p value≤0.01, *two tailed p value≤0.05 using a student's t-test.\nFIG. 30 illustrates primary mouse KPC-derived pancreatic cancer cells were untreated or treated with gemcitabine, MCM, IGF blocking antibody or recombinant IGF for 24 hours and percentage of cell death was quantified by flow cytometry. Error bars represent s.d. (n=3); **two tailed p value≤0.01 using a student's t-test.\nFIG. 32 illustrates KPC-derived cells which were cultured in the presence or absence of MCM or recombinant IGF and treated with 100 or 1000 nM nab-paclitaxel for 24 hours. Percentage of cell death was quantified by flow cytometry. Error bars represent s.d. (n=3); *two tailed p value≤0.05 using a student's t-test.\nSuit-2 and KPC cells were cultured in serum free or DMEM with 2% FBS respectively, pretreated for 3 h with human or mouse macrophage conditioned media respectively, and IGF-1 IgG blocking antibody (abcam 9572) at 10 μg/ml or IgG antibody as control, followed by Gemcitabine at 200 nM. Cells were harvested after 24 hours, and subjected to flow cytometry. […] Apoptosis was evaluated by flow cytometry (FACS Calibur, Becton Dickinson). […]"}, "Insulin/IGF receptor": {"tested_on": "Insulin/IGF receptor", "assay": "Immunoblotting of Insulin/IGF receptor signalling in cancer cells", "type": "cell-based, human, mouse", "details": "Suit-2, KPC-derived and Py230 cells, 3 hours; FIG. 27", "description": "FIG. 27 illustrates Immunoblot analysis of phospho-lnsulin/IGF receptor, phospho-Insulin receptor, Insulin receptor, phospho- IGF receptor 1, IGFR1 and tubulin, in human pancreatic cancer Suit-2 cells, murine primary KPC pancreatic cancer and\nPy230 breast cancer derived cells, serum starved, exposed to MCM or exposed to recombinant IGF for 3 hours.\nFIG. 28 illustrates that blockade of IGF impairs macrophage-mediated activation of Insulin/IGF receptor and downstream signalling molecules IRS1, IRS2 and AKT in cancer cells by Immunoblotting analysis of Suit-2 cells untreated or treated with MCM or MCM+IGF blocking antibody for 3 hours.\nCells were serum starved or treated with macrophage conditioned media for 30 min, 2 h or 3 h, harvested and lysed in RIPA buffer (150 mM NaCl, 10 mM Tris-HCl pH 7.2, 0.1% SDS, 1% Triton X-100, 5 mM EDTA) supplemented with a complete protease inhibitor mixture (SIGMA), a phosphatase inhibitor cocktail (Invitrogen), 1 mM PMSF and 0.2 mM Na3VO4. Cell lysates (300 μg) were analyzed with the Human Phospho-RTK Array Kit (R&D Systems). Protein samples were resuspended in 4xLaemmli sample buffer, and immunoblotting was performed on nitrocellulose membranes blocked in 5% BSA or milk (depending on the antibody) in Tris-buffered saline Tween-20 (TBST). […]"}, "[3]": {"tested_on": "Suit-2 and KPC derived pancreatic cancer cells", "assay": "Cell death and cell cycle analysis of cancer cells treated with the agents alone", "type": "cell-based, human, mouse", "details": "no chemotherapy; antibody 10 μg/ml, recombinant IGF 100 ng/ml; FIGS. 52 and 53", "description": "FIG. 52 illustrates quantification of cell death in Suit-2 cells exposed to 200 nM gemcitabine, MCM and/or IGF blocking antibody (10 μg/ml). Error bars represent s.d. (n=3); **two tailed p value≤0.01 using a student's t-test.\nFIG. 53 illustrates cell cycle analysis of primary mouse KPC derived pancreatic cancer cells exposed to MCM, IGF blocking antibody ([…]) or recombinant IGF (100 ng/ml).\nKPC derived pancreatic cancer cells were treated with isogenic mouse MDFs, IGF1/2 blocking antibody (abcam 9572) at 10 μg/ml or recombinant IGF (Peprotech 100-11) at 100 ng/ml. Cells were harvested, fixed with methanol, treated for 45 min with 10 μg/ml of RNase, resuspended in PBS containing 10 μg/ml of propidium iodide and subjected to flow cytometry."}, "[4]": {"tested_on": "MDA-MB-231 breast cancer cells", "assay": "Cell death by flow cytometry under nab-paclitaxel with MCM or recombinant IGF", "type": "cell-based, human", "details": "recombinant IGF 100 ng/ml; 500 nM nab-paclitaxel, 48 hours; FIG. 33", "description": "FIG. 33 illustrates human breast MDA-MB-231 cancer cells cultured in the presence or absence of MCM or recombinant IGF and treated with 500 nM nab-paclitaxel for 48 hours. Percentage of cell death was quantified by flow cytometry. Error bars represent s.d. (n=3); *two tailed p value≤0.05, **two tailed p value≤0.01 using a student's t-test.\nMDA-MB-231 cells were pretreated for 3 hours with human macrophage derived factors (MDF) or recombinant IGF (100 ng/ml) followed by 500 nM of nab-paclitaxel."}}}
{"molecule": "Nc1ccn([C@@H]2O[C@H](CO)[C@@H](O)C2(F)F)c(=O)n1", "note": "[gemcitabine]", "values": [{"measurement": "effect on tumor growth (tumor weights)", "setting": "[1]", "value": "no effect"}, {"measurement": "patients treated with gemcitabine who die within 5 years of commencing treatment", "setting": "pancreatic cancer", "value": 95, "unit": "%"}]}
{"molecule": "recombinant IGF: recombinant IGF (Peprotech 100-11) used at 100 ng/ml", "values": [{"measurement": "resistance of pancreatic cancer cells to gemcitabine and nab-paclitaxel", "setting": "[2]", "value": "sufficient to mediate resistance"}, {"measurement": "Insulin/IGFR signaling in pancreatic and breast cancer cells", "setting": "Insulin/IGF receptor", "value": "activates Insulin/IGFR signaling"}, {"measurement": "survival or proliferation of cancer cells, agent alone", "setting": "[3]", "value": "did not alter the survival or proliferation"}, {"measurement": "resistance of breast cancer cells to nab-paclitaxel", "setting": "[4]", "value": "sufficient to mediate resistance"}]}
{"molecule": "B1", "values": [{"measurement": "effect on tumor growth (tumor weights)", "setting": "[1]", "value": "modest effect"}, {"measurement": "phospho-Insulin/IGFR expression in tumors", "setting": "[1]; immunohistochemical analysis, FIG. 47e", "value": "decreased"}]}
